The record followed here is publication PMC11851430, “Workflow for E3 Ligase Ligand Validation for PROTAC Development” (ACS Chemical Biology, 2025).

The target of one test is T1, PIM3A (Homo sapiens, UniProt Q86V86).
T1 construct: purchased in-house DSF panel (SGC-style construct names; the trailing A/B is a construct suffix)
As to the kind of experiment: DSF assay. It counts as binding. As to conditions: 20 µM compound. A general note: Differential scanning fluorimetry follows unfolding on heating by fluorescence.

Another test addresses T2, FLT1 (Homo sapiens, UniProt P17948).
T2 construct: purchased in-house DSF panel (SGC-style construct names; the trailing A/B is a construct suffix)
T2 sequence (P17948 801-1158): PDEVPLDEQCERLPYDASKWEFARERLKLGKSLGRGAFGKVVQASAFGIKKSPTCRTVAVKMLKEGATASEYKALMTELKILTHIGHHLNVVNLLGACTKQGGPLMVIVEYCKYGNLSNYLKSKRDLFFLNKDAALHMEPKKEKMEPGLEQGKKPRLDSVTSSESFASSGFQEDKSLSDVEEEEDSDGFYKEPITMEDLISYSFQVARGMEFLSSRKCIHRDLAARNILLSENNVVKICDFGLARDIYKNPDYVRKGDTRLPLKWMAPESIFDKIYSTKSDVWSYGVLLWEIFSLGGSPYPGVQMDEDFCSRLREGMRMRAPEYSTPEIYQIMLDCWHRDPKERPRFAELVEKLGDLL
As to the kind of experiment: DSF assay. It counts as binding. The conditions noted are these: 20 µM compound.

For a further test, the target named is T3, FGFR1B (Homo sapiens, UniProt P11362).
T3 construct: purchased in-house DSF panel (SGC-style construct names; the trailing A/B is a construct suffix)
T3 sequence (P11362 456-767): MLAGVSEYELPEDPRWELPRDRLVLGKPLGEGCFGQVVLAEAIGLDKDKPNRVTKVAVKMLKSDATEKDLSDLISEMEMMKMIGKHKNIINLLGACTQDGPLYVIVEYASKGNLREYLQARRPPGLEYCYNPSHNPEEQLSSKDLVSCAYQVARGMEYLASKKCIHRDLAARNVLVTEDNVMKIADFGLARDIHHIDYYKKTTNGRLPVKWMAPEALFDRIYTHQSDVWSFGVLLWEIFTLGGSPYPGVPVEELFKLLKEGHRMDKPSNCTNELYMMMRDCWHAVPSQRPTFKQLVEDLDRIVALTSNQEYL
As to the kind of experiment: DSF assay. The test is classed as binding. As to conditions: 20 µM compound.

The target in a further test is T4, RIOK1A (Homo sapiens, UniProt Q9BRS2).
T4 construct: purchased in-house DSF panel (SGC-style construct names; the trailing A/B is a construct suffix)
T4 sequence (Q9BRS2 143-494): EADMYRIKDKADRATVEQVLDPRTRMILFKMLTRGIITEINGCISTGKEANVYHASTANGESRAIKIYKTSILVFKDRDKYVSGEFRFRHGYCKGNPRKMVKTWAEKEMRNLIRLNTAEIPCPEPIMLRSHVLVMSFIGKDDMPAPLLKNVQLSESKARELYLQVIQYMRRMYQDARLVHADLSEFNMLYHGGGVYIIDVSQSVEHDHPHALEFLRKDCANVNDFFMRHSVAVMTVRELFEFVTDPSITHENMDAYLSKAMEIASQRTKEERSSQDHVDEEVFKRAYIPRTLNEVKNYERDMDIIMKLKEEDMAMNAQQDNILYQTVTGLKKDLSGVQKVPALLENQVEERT
As to the kind of experiment: DSF assay. The test is classed as binding. The conditions noted are these: 20 µM compound.

In the next test the target is T5, STK17B (Homo sapiens, UniProt O94768).
T5 construct: purchased in-house DSF panel (SGC-style construct names; the trailing A/B is a construct suffix)
T5 sequence (O94768 25-329): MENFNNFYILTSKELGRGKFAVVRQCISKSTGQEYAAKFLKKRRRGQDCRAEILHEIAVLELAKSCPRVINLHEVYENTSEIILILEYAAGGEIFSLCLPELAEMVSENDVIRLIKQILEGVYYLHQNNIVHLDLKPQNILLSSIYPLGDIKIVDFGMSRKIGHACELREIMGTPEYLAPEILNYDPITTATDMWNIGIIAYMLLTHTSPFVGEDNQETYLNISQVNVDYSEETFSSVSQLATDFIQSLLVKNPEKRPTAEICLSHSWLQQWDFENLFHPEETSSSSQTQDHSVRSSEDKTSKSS
As to the kind of experiment: DSF assay. The test is classed as binding. The conditions noted are these: 20 µM compound.

The target of a further test is T6, ITK^HiBiT (Homo sapiens, UniProt Q08881).
T6 construct: HiBiT-ITK construct was cloned by PCR amplification of vector containing full-length; expressed in transfected cells
T6 sequence (Q08881 1-620): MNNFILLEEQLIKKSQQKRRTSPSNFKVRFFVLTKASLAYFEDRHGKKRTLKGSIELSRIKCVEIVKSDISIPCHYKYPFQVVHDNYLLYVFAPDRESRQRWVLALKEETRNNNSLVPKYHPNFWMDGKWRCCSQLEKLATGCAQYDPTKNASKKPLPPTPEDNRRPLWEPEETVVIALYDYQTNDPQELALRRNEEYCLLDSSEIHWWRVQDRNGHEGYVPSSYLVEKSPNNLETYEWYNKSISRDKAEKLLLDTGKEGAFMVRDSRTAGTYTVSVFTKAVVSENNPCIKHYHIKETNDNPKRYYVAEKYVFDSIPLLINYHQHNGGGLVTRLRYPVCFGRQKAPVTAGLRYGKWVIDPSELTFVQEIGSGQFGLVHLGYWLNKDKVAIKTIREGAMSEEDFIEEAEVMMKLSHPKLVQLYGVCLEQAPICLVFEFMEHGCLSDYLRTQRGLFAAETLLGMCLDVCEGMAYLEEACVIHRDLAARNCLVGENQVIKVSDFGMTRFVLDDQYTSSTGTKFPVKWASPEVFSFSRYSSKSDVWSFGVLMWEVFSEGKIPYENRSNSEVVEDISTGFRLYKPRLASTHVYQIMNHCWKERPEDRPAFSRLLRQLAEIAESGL
As to the kind of experiment: HiBiT assay, Jurkat cells expressing ITK^HiBiT. The test is classed as cell-based. The conditions noted are these: 6 h. On the procedure: Cell culture. Human MV4-11 ([…]) and human Jurkat ([…]) cells were cultured in RPMI- […]
1640 medium whereas human HEK293 ([…]) cells were cultured in DMEM medium at 37 °C in 5% CO2. Both media were supplemented with 10% FBS and 1% penicillin/streptomycin.
Cloning. HiBiT-ITK construct was cloned by PCR amplification of vector containing full-length
ITK. The PCR product was inserted into pRRL-PGK-HiBiT entry vector using AgeI/MluI sites.
The following primers were used for cloning HiBiT-ITK; forward: […]
Cell line generation. The stable cell line MV4-11 AURORA−HiBiT was generated as previously described.14 Lentiviral infection was used to generate the stable Jurkat HiBiT cell line.
Lentivirus was produced using plasmids psPAX2, pMD2.G, and HiBiT-ITK plasmid in HEK293 cells. Jurkat cells were infected with filtered virus supernatant and selected after 48 h of infection for the generation of the stable JurkatITK-HiBiT cell line.
HiBiT Measurements. HiBiT assay was performed as described previously. 14 Briefly, MV4-11 and Jurkat HiBiT cells were seeded and treated with compounds for the indicated time. Nano-Glo HiBiT Lytic Detection System (Promega) was used for the assay and luminescence was measured on a Tecan Spark Multiplate reader (Tecan). DC50s were calculated using the dose-response (four parameters) equation in Prism (GraphPad).

Take `CC(C)(C)OC(=O)NCCCOCCOCCOCCCNC(=O)c1cc(Nc2cc(C3CC3)[nH]n2)nc(Nc2ccc(CC#N)cc2)n1` [5-L]: the thermal shift (ΔTm) (as a rule, the shift of the melting midpoint relative to a reference) at 20 µM stood at 0.61 °C at PIM3A; 8.06 °C on FLT1; 3.47 °C on FGFR1B; 5.35 °C at RIOK1A; 1.81 °C on STK17B.

On ITK^HiBiT, `Cc1ncsc1-c1ccc(CNC(=O)[C@@H]2C[C@@H](O)CN2C(=O)[C@@H](NC(=O)CCOCCOCCOCCN2CCN(c3cc(Nc4cc(C5CC5)[nH]n4)nc(Nc4ccc(CC#N)cc4)n3)CC2)C(C)(C)C)cc1` [4-a] returned a DC50 of 937 nM and a Dmax of no more than 71%.

`Cc1ncsc1-c1ccc(CNC(=O)[C@@H]2C[C@@H](O)CN2C(=O)[C@@H](NC(=O)CCOCCOCCOCCOCCN2CCN(c3ccc(Nc4ncc(Cl)c(Nc5ccccc5C(N)=O)n4)cc3)CC2)C(C)(C)C)cc1` [6-b]: on ITK^HiBiT, the DC50 was 42 nM, the Dmax was no more than 71% and the “concentration at which a hook effect was observed” value was greater than 1 µM.

Consider `CCOC(=O)c1cc(Nc2cc(C3CC3)[nH]n2)nc(Nc2ccc(CC#N)cc2)n1` [compound 5], for which the ΔTm at 20 µM on PIM3A was -0.28 °C; at FLT1 it was 9.16 °C; at FGFR1B it was 5.22 °C; at RIOK1A, 4.9 °C; at STK17B it was 2.58 °C.

On to `CC(C)(C)OC(=O)NCCOCCOCCOCCOCCC(=O)N1CCN(c2cc(Nc3cc(C4CC4)[nH]n3)nc(Nc3ccc(CC#N)cc3)n2)CC1` [4-L], for which the ΔTm at 20 µM on PIM3A is -4.95 °C; on FLT1, 11.7 °C; on FGFR1B it was 6.61 °C; on RIOK1A it was -0.05 °C; at STK17B, 1.6 °C.
